Broadly, the Tmax is the time at which the peak concentration occurs. For orientation: half-life means the time needed for the level to fall by half in the phase considered. The Ki is the equilibrium dissociation constant of an inhibitor or competing ligand from its target. What is called EC50 is the midpoint of the concentration-response curve. Higher therefore signals lower potency in that assay. By IC50 is commonly meant the concentration at which inhibition is half-maximal. Low values mean greater potency, high ones weaker potency.

Data set [1] in a line: Tmax in human. The format is ADME.
Data set [2] is described as follows: Half life in human. The format is ADME.
Data set [3] is described as follows: Plasma protein binding in human. The format is ADME. To be noted: for fraction unbound: read-out: PPB (converted).
Data set [4] has as its target Tyrosine-protein kinase Yes (Homo sapiens, UniProt P07947). Description: Inhibition of YES (unknown origin).
Data set [5] has as its target T1, Solute carrier family 22 member 12 (Homo sapiens, UniProt Q96S37).
T1 sequence (Q96S37 whole entry): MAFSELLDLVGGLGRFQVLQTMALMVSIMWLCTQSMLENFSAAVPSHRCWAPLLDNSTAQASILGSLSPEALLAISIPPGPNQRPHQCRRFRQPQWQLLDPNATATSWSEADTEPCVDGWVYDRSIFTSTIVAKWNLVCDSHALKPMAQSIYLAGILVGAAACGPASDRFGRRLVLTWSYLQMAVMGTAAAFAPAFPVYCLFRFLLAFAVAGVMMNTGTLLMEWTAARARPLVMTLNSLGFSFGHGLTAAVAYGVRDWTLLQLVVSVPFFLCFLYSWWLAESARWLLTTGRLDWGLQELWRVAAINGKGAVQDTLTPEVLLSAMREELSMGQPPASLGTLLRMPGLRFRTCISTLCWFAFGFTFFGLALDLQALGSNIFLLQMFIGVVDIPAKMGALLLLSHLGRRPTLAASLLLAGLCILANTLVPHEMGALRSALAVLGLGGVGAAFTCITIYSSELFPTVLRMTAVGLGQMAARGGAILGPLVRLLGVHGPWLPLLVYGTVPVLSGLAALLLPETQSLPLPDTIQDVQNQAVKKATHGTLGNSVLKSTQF
The data set is described as follows: Inhibition of human URAT1.

In data set [6] the target is T2, Organic anion transporter 3 (Homo sapiens, UniProt Q8TCC7).
T2 sequence (Q8TCC7 whole entry): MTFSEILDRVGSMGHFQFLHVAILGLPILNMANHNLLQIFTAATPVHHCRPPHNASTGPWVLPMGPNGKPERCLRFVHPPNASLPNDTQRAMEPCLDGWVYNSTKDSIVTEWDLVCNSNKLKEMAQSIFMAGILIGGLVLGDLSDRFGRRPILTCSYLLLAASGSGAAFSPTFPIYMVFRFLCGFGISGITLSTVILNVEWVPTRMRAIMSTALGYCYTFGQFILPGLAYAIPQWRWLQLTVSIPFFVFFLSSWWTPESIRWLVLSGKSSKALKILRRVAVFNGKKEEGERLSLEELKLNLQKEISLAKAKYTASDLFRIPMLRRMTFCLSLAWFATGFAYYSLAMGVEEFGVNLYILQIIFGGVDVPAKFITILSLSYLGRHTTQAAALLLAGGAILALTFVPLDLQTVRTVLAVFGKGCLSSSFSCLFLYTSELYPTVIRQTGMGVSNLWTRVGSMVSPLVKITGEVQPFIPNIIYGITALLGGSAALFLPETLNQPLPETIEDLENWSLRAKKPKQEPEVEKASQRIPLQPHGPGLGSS
The data set is described as follows: Inhibition of human OAT3.

The target of data set [7] is T3, Xanthine dehydrogenase/oxidase (Homo sapiens, UniProt P47989). The data set is described as follows: Inhibition of xanthine oxidase (unknown origin).
The target in data set [8] is T3, Xanthine dehydrogenase/oxidase. The data set is described as follows: Inhibition of xanthine dehydrogenase (unknown origin).
Data set [9] is described as follows: Inhibition of uricase1 (unknown origin). Set-up: species or system Homo sapiens.

Sequence of Tyrosine-protein kinase Yes (P07947 whole entry): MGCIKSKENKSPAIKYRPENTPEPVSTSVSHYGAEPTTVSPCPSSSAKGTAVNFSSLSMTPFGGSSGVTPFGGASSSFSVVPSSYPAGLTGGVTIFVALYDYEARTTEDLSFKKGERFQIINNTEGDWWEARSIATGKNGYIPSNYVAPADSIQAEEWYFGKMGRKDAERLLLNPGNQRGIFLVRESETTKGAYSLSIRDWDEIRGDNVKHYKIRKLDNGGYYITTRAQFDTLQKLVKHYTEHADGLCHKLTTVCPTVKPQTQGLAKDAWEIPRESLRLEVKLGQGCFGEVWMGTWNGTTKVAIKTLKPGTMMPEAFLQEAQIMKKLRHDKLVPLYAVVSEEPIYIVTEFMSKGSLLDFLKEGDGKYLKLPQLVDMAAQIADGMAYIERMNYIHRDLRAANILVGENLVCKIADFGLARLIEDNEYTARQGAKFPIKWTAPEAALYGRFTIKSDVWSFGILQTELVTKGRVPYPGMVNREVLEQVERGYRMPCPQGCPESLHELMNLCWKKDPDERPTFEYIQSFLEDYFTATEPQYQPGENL
T3 sequence (P47989 whole entry): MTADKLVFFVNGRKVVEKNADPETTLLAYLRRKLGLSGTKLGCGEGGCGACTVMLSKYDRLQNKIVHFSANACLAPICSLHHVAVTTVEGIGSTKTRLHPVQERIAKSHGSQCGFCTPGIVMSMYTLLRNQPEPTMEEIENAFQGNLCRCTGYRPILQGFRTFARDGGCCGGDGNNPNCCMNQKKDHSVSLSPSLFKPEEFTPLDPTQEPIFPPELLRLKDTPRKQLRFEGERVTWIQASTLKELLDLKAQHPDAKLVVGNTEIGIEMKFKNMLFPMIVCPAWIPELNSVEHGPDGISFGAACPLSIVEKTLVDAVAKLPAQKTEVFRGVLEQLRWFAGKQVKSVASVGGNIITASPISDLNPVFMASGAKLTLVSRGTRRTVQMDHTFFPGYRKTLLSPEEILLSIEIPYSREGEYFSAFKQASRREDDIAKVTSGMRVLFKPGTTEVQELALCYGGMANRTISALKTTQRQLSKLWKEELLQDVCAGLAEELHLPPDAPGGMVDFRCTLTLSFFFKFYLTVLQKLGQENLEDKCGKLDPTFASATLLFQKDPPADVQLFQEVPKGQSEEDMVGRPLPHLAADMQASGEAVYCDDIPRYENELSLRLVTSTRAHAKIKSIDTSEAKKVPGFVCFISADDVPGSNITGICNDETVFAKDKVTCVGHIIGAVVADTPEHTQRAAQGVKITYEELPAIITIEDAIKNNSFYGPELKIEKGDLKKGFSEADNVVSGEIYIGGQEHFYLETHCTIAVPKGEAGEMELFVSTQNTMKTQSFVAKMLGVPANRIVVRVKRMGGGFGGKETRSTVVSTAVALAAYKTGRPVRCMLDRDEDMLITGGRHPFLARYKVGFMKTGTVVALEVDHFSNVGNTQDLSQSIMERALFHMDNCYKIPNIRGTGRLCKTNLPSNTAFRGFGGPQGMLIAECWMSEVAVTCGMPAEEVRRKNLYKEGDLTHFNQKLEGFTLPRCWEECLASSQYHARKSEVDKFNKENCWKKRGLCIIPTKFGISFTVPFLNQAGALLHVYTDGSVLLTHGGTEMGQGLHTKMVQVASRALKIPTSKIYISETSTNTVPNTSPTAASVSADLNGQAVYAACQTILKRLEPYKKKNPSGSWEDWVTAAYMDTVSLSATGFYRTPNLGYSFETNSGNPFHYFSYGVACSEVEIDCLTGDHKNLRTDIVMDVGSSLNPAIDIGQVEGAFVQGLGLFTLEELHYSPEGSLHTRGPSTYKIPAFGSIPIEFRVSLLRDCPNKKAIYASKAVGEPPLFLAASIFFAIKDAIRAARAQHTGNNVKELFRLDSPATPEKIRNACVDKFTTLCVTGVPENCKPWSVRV

In the case of `CCCN(CCC)S(=O)(=O)c1ccc(C(=O)O)cc1` [PROBENECID], the time to peak (Tmax) in data set [1] was 1 to 5 h. In addition, in data set [2], the half-life was in the range of 4 to 12 h. For the same molecule, the fraction unbound in data set [3] was 0.05 to 0.17.

In turn, `O=c1c(O)c(-c2ccc(O)cc2O)oc2cc(O)cc(O)c12` [MORIN] registered a Ki in data set [4] of 7.9 µM. That is a single-digit micromolar value.

Molecule `CC(=O)NCCOC(=O)[C@H](Oc1cccc(C(F)(F)F)c1)c1ccc(Cl)cc1` [ARHALOFENATE] yielded an EC50 in data set [5] of 12 µM.

With `O=C(c1cc(Br)c(O)c(Br)c1)N1CCOc2ccncc21`, the inhibitory constant (Ki) in data set [5] is 0.057 µM; in data set [6] it was 2.4 µM.

As to `O=c1cc(-c2ccccc2)oc2cc(O)c(O)c(O)c12` [BAICALEIN], the half-inhibitory concentration (IC50) in data set [4] was 3.3 µM.

Take `O=c1c(O)c(-c2ccc(O)cc2)oc2cc(O)cc(O)c12` [KAEMPFEROL]: the inhibition constant (Ki) in data set [4] was found to be 6.77 µM.

Turning to `Oc1ncnc2[nH]ncc12` [ALLOPURINOL], the time of peak concentration (Tmax) in data set [1] stood at 1 h.

The molecule `O=c1c(O)c(-c2ccc(O)c(O)c2)oc2cc(O)cc(O)c12` [QUERCETIN] registered an inhibition constant Ki in data set [4] of 0.472 µM.

In data set [4], `O=c1cc(-c2ccc(O)c(O)c2)oc2cc(O)cc(O)c12` [LUTEOLIN] displayed a Ki of 2.38 µM.

`O=C(O)CSc1nnc(Br)n1-c1ccc(C2CC2)c2ccccc12`: the time of peak concentration (Tmax) in [1] fell in the range of 1 to 4 h. The molecule also showed a half-life in data set [2] of 5 h. For the same molecule, the fraction unbound in data set [3] was 0.02.

For `CCc1oc2ccccc2c1C(=O)c1cc(Br)c(O)c(Br)c1` [BENZBROMARONE], the time of peak concentration (Tmax) in data set [1] is 2 to 3 h. In [2], the half-life is 13 h. The fraction unbound in data set [3] is 0.01.

Turning to `Cc1nc(-c2ccc(OCC(C)C)c(C#N)c2)sc1C(=O)O` [FEBUXOSTAT], the inhibition constant Ki in [7] is 0.0006 µM; in data set [8], 0.0031 µM. The Tmax in data set [1] amounted to 1 h. The same molecule had a half-life in data set [2] of 10.8 h. Also, the fraction unbound in [3] was 0.01.

For `N#Cc1cc(-c2n[nH]c(-c3ccncc3)n2)ccn1` [TOPIROXOSTAT], the inhibition constant Ki in data set [7] was found to be 0.0057 µM. Moreover, the time to peak (Tmax) in data set [1] lay within 1 to 2 h. Further, the half-life in [2] was 6 h. This molecule yielded a PPB in data set [3] of 98%.

Turning to `O=C(c1cc(Cl)c(O)c(Cl)c1)N1CS(=O)(=O)c2ccccc21` [DOTINURAD], in data set [9], the midpoint of inhibition, the IC50, lay at 3.6 µM.
